The values below come from ChEMBL document CHEMBL1121785, “Comparison of solution conformational preferences for the hallucinogens bufotenin and psilocin using 360-MHz proton NMR spectroscopy” (J Med Chem, 1981).

Assay type in all cases: physicochemical
Data set [1] is described as follows: Partition coefficient (logP). The note with it: octanol/water.
Data set [2] in a line: Partition coefficient of octanol and water was determined.
The nature of data set [3]: True partition coefficient corrected for ionization was determined. The note with it: octanol/water.

In turn, `CN(C)CCc1c[nH]c2ccc(O)cc12` [BUFOTENINE] yielded a lipophilicity (logP) in data set [1] of 1.19. In data set [2], the Poct came out at 0.16.
In data set [1], `CN(C)CCc1c[nH]c2cccc(O)c12` [PSILOCIN] displayed a lipophilicity (logP) of 1.45. This compound also displayed a pKa in data set [3] of 3.3. Further, the Poct in data set [2] was 0.68.
